Laboratory results as given in patent US10233190B2, “IDO inhibitors” (NewLink Genetics Corporation, priority 2011, dated 2019).

How the values were obtained:
[1] = Steady state plasma concentration from subcutaneous osmotic pumps
LLC murine tumor cells = assay: In vivo antitumor activity, LLC tumor allograft, alone or with chemotherapy; details: for antitumor effect: LLC tumor in C57Bl6 mice, single agent or in combination with chemotherapy

OC(CC1c2ccccc2-c2cncn21)C1CCCCC1 (stereo not drawn) [Compound 1304, 1-cyclohexyl-2-(5H-imidazo[5,1-a]isoindol-5-yl)ethanol]
steady state plasma concentration of drug ([1]; s.c. osmotic pumps, 200 uL of 30 mg/mL solution, 1 uL per hour for 8 days): 0.5 to 3 µM | antitumor effect (LLC murine tumor cells): significant antitumor effect | long term survival fraction, mice tumor free after 60 days (LLC murine tumor cells; LLC tumor, after 60 days): 70-80% | median survival time (log rank test) (LLC murine tumor cells; LLC tumor, single agent or in combination with cyclophosphamide): statistically significant difference in median survival time | average tumor volume over time (LLC murine tumor cells; LLC tumor, single agent or in combination with cyclophosphamide 100 mg/kg i.p.): very sensitive to the effects of treatment

OC(CC1c2c(F)cccc2-c2cncn21)C1CCCCC1 (stereo not drawn) [Compound 1357, 1-cyclohexyl-2-(6-fluoro-5H-imidazo[5,1-a]isoindol-5-yl)ethanol]
steady state plasma concentration of drug ([1]; mouse, in vivo): 0.5 to 3 µM | antitumor effect (LLC murine tumor cells): significant antitumor effect | median survival time vs vehicle (log rank test) (LLC murine tumor cells; LLC tumor, single agent): statistically significant difference in median survival time | average tumor volume over time vs vehicle (fitted exponential growth curves) (LLC murine tumor cells; LLC tumor, single agent, osmotic pumps, p<0.0001): statistically significant differences
